According to patent publication US12172992B2, “Pyrimidines for degrading Bruton's tyrosine kinase” (AbbVie Inc., priority 2022, dated 2024):

How the values were obtained:
[1] = tested on: TCL1-driven CLL bearing BTK^C481S mutation; experiment: TCL1-driven CLL bearing BTK C481S mutation in C57BL/6 mice, circulating leukemia burden; type: in vivo, mouse
From the text: EIA-TCL1 CLL transgenic mice (Crogen Pharmaceuticals LLC) were crossed with BTK^C481S knock-in mice (AbbVie) to generate Eμ-TCL1 transgenic mice carrying the BTK^C481S mutation. The leukemic splenocytes from these BTK^C481S Eμ-TCL1 transgenic mice (Passage 1) were transplanted intravenously into C57BL/6 mice, leading to CLL development in the peripheral blood and spleen. When circulating CLL burden (CD5+CD19+ cells as described below) in the recipient mice reached over 90%, their splenocytes (Passage 2) containing high CLL burden were cryopreserved and used for CLL efficacy studies. […]
To determine the absolute/total leukocyte numbers, complete blood counts were determined for each mouse using the Genesis™ veterinary hematology analyzer (Oxford Science Inc.).
Cells isolated from murine peripheral blood mononuclear cells (PMBCs) were collected to determine antigen expression. […] Cells were gated on CD45+, and thereafter the percentage of cells that were CD5+CD19+ from that subset was calculated. […]
Whole blood was collected weekly post tumor implantation via submandibular cheek bleeding. Circulating leukemic burden was calculated by multiplying absolute/total leukocyte count with the percentage of the leukocytes have the immunophenotype CD19^+CD5^+. […]

[2] = biological target: BTK in mouse bone marrow (Mus musculus (Mouse), UniProt P35991); experiment: Mouse Bone Marrow Assay (MSD ELISA of BTK degradation in bone marrow); type: in vivo; conditions: female C57BL/6J mice, single dose of Dose A, bone marrow collected after 24 hours
Description: Female C57BL/6J mice (Jackson Laboratories) were used for this study. Compounds or vehicle/control were prepped with EtOH; PEG-400; Phosal 53 MCT (10:30:60, v/v). Four mice were tested per compound or vehicle/control. On Day 1, mice were administered a single dose of Dose A. On Day 2 (after 24 hours), tissue (bone marrow) was collected from one hind leg per mouse.
An MSD (Meso Scale Discovery) ELISA (enzyme-linked immunosorbent assay) based assay was used to determine BTK degradation in mouse bone marrow. The following materials and equipment were used: 10% NP40 solution (nonionic polyoxyethylene surfactant, ThermoFisher, cat no. 28324); protease inhibitor mini tablet (Roche, cat no. 05 892 970 001); PhosphoSTOP™ tablet (Roche, cat no. 04 906 837 001); Pierce™ BCA Protein Assay Kit (Thermofisher, Cat No. 23225); Precellys® 2 mL lysing tube with 2.8 mm beads (VWR, cat no. 10032-756); Bertin Precellys® 24/Cryolys® cooling system; 96-well MSD streptavidin pre-coated plates (MSD, cat no. L15SA-1); MSD Blocker A (MSD, cat no. R93BA-4); capture antibody, biotinylated BTK mAb (BD Biosciences, cat no. 624008; custom order); primary detection antibody, BTK RpAb (rabbit polyclonal antibody, CST, cat no. 8547S, D3H5 clone); secondary detection antibody, anti-Rabbit-Sulfo-Tag (MSD, cat no. R32AB-1); read Buffer, 4× (MSD, cat no. R92TC-1); recombinant BTK protein (Thermofisher, cat no. PR5442A); MSD Tris Wash Buffer (10×) (MSD, cat no. R61TX-1); PBS (phosphate-buffered saline); deionized water (diH2O); Lysis Buffer [0.2% NP40 in PBS+Protease Inhibitor tablet (1 tablet/10 mL)+PhosphoSTOP tablet (1 tablet/10 mL)]; 3% MSD Blocker A [MSD Blocker A+450 mL diH2O+50 mL]; and 10×MSD Tris Wash Buffer.
Lysis buffer [(PBS+0.2% NP40+PI (protease inhibitor)+PhosphoSTOP)] was prepared and put on ice until it was fully cold. Ice cold lysis buffer […] was added to each Precellys® tube containing beads and bone marrow sample. Sample tubes were transferred into Precellys® machine and homogenized using 5000 rpm—2×20 seconds. The sample lysates were centrifuged at 14,000 rpm for 20 minutes at 4° C. after homogenizing.
The protein concentration was determined using Pierce™ BCA Protein Assay Kit following manufacturer's recommended protocol. The protein normalized working solution was prepared, using 30 μg protein per sample lysate for assay.
A 300 ng/ml working stock solution of recombinant BTK protein in lysis buffer was prepared, and the sample was serially diluted at 3-fold dilution (10-point assay, highest concentration was 300 ng/mL and lowest concentration was 0.015 ng/mL)
MSD plate coating: Coating antibody (biotinylated-BTK mAb) stock solution was prepared at 1 μg/mL in PBS buffer. 50 μL/well capture antibody (Biotinylated BTK mAb) solution was added, and the plates were shaken gently at ambient temperature for two hours. The plates were washed 3 times with 1×MSD Tris Wash Buffer in a plate washer (300 μL/well), and the plates were blocked with 3% MSD Blocker A (150 μL/well). The plates were incubated for an additional 1-2 hours at ambient temperature with gentle shaking. The plates were washed 3 times with 1×MSD wash buffer using plate washer. Bone marrow lysates (30 μg) at a final volume of 50 μL/well were added into the plates. The serially diluted standard samples were added to the same plates at a final volume of 50 μL/well. The plates were incubated overnight at 4° C. with gentle shaking.
The plates were washed three times with 1×MSD wash buffer (prepared from 10× concentration buffer) using plate washer. Primary detection antibody at 50 μL/well was added (BTK RpAb; 1:1000 dilution in 1% MSD Blocker A). The plates were incubated for two hours at ambient temperature with gentle shaking. The plates were washed three times with 1×MSD wash buffer using plate washer. Anti-Rabbit-SULFO-TAG secondary antibodies (50 μl/well) were added, 1:500 diluted in 1% MSD Blocker A, and the plates were incubated for one to two hours at ambient temperature. […]

Chain of BTK in mouse bone marrow (P35991 whole entry): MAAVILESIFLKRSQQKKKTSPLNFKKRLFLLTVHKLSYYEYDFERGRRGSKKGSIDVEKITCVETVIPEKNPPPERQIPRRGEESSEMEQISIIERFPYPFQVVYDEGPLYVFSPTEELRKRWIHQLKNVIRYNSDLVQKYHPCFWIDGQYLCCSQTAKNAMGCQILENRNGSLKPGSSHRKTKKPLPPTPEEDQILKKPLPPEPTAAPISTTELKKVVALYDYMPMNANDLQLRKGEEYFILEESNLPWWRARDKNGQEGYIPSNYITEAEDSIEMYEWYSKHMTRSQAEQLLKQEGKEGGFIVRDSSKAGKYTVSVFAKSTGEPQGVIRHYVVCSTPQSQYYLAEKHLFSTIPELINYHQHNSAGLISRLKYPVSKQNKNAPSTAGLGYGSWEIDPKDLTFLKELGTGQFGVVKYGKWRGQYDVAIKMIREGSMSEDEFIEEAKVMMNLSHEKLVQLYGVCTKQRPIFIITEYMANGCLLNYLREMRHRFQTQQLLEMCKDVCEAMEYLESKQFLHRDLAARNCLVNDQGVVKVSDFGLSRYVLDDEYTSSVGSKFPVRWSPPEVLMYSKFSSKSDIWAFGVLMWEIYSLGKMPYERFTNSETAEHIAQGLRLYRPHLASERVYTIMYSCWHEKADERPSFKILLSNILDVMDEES

Structure (SMILES): Cc1cc(-c2cc(Nc3ccc(N4CCN(CCc5ccc(N6CCC(=O)NC6=O)cc5)C[C@@H]4C)cn3)ncn2)ccc1[C@@H](C)NC(=O)c1nc(C(C)(C)C)no1 [Example 1, 3-tert-butyl-N-[(1R)-1-{4-[6-({5-[(2S)-4-{2-[4-(2,4-dioxo-1,3-diazinan-1-yl)phenyl]ethyl}-2-methylpiperazin-1-yl]pyridin-2-yl}amino)pyrimidin-4-yl]-2-methylphenyl}ethyl]-1,2,4-oxadiazole-5-carboxamide]
- CLL burden control (no increase from the initial tumor burden) ([1]; QD for 19 days, at Dosage 3 and Dosage 4): Complete CLL burden control
- circulating leukemia burden (CD19+CD5+ CLL cells per μL) ([1]; once daily (QD) for 19 days, Dosage 1-4, FIG. 1): controlled circulating leukemia burden of the TCL1-driven CLL bearing BTK^C481S mutation in C57BL/6 mice in a dose-dependent manner
- Mouse Bone Marrow (%) (% remaining BTK, vehicle versus treated) [2]: 11%
